Experimental data from US11912668B2, “GCN2 and perk kinase inhibitors and methods of use thereof” (Deciphera Pharmaceuticals, LLC, priority 2020, dated 2024).

Key:
PERK kinase = PERK kinase (Homo sapiens (Human), UniProt Q9NZJ5); experiment: Biochemical assay for PERK (coupled pyruvate kinase/lactate dehydrogenase assay); conditions: 1 mM ATP, rate from 2-3 h time frame
Outline: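 Coupled pyruvate kinase/lactate dehydrogenase readout of ATP hydrolysis via NADH oxidation (A340), 10 nM PERK, 0.25 mg/mL myelin basic protein, 1 mM ATP, pH 7.5 Tris/MgCl2 buffer, 1% DMSO. Absorbance followed 6 h at 30° C; rate from the 2-3 h window, normalised to no-compound and known-inhibitor controls, IC50 fitted.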

GCN2 kinase = GCN2 kinase (Homo sapiens (Human), UniProt Q9P2K8); experiment: Biochemical assay for GCN2 (TR-FRET kinase activity assay); conditions: 1 mM ATP, 3-hour incubation
Chain of GCN2 kinase (Q9P2K8 whole entry): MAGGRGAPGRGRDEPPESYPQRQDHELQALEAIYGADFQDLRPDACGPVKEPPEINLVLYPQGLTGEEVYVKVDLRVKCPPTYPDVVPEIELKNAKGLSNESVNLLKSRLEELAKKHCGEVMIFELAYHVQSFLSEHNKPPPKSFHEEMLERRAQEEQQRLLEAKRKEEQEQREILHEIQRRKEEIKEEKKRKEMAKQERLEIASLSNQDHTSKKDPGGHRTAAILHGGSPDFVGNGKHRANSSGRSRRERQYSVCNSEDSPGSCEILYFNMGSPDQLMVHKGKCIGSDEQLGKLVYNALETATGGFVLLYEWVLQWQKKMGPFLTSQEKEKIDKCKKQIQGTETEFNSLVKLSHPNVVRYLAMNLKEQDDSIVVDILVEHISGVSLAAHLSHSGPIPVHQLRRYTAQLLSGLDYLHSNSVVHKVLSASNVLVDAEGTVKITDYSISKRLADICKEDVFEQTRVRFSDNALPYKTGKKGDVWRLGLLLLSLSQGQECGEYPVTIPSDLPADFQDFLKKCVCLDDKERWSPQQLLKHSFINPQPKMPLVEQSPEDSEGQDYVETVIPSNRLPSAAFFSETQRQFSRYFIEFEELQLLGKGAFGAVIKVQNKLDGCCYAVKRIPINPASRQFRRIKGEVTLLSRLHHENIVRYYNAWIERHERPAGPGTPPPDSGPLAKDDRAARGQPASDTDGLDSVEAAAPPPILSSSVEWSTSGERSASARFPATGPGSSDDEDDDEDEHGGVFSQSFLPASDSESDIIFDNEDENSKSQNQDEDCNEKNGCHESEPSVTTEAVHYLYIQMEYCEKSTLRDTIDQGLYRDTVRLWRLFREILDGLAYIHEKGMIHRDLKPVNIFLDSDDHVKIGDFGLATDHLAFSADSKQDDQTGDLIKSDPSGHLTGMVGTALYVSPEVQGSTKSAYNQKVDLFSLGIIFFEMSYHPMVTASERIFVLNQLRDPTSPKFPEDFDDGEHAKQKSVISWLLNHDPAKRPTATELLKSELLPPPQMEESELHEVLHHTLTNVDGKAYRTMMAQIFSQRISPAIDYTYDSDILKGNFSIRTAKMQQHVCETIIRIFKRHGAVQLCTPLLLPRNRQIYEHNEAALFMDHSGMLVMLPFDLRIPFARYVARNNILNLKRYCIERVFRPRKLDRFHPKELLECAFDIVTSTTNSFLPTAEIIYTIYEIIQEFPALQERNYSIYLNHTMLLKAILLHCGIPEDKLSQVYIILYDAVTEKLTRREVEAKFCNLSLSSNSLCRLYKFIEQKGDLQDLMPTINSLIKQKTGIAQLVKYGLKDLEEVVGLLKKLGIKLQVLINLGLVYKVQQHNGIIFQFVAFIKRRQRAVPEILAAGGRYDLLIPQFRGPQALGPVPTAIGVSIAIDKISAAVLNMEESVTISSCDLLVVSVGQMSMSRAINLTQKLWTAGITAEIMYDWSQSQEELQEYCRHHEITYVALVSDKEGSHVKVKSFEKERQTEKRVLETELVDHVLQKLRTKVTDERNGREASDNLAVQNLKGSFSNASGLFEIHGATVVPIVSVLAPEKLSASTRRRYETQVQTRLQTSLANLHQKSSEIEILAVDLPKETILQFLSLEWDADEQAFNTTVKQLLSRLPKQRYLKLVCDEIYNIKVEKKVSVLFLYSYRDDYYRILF
Outline: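 TR-FRET assay with 2 nM GCN2, 130 nM GFP-eIF2α substrate, 0.2 mg/mL E. coli tRNA and 1 mM ATP; compounds (0.5% DMSO) reacted 3 h. Stopped with 20 mM EDTA plus 2 nM Tb-anti-peIF2α (pSer52), 60 min RT; 520/490 ratio converted to % inhibition, IC50 from four-parameter fit.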

[1] = test system: ATF4 in H929 multiple myeloma cells; experiment: H929 ATF4 ELISA assay (stimulation of cellular ATF4); format: cell-based; conditions: 4 h, no thapsigargin
Protocol: H929 multiple myeloma cells (catalog #CRL-9068) were obtained from the American Type Culture Collection (ATTC, Manassas, VA). Briefly, cells were grown in RPMI-1640 medium supplemented with 20% heat-inactivated fetal bovine serum (catalog #A3840002, ThermoFisher Scientific, Waltham, MA), 1% Penicillin/Streptomycin/L-Glutamine (catalog #10378016, ThermoFisher Scientific, Waltham, MA), and 0.05 mM 2-mercaptoethanol (catalog #21985-023, ThermoFisher Scientific, Waltham, MA) at 37° C., 5% CO2, and 95% humidity. Cells were expanded until reaching one million five hundred thousand cells per mL at which time they were subcultured or harvested for assay use. One million five hundred thousand cells per well in 1 mL complete growth medium were dispensed into 12-well plates and incubated overnight. A serial dilution of test compound was added, and cells were incubated at 37° C., 5% CO2, and 95% for four hours. Cells were lysed then ATF4 levels were measured using an ELISA assay (Proteintech, Rosemont, IL). Absorbance is measured at 450 nm and 544 nM using a Synergy2 or equivalent reader (Biotek, Winooski VT). Data were analyzed using PRISM software (Graphpad, San Diego, CA) to calculate fold stimulation of cellular ATF4 relative to vehicle treated control.

[2] = test system: ATF4 in CCRF-CEM leukemia cells (PERK); experiment: CCRF-CEM TG ATF4 ELISA, phenotypic assay for cellular inhibition of PERK preactivated by thapsigargin; format: cell-based; conditions: Homo sapiens; Thapsigargin (1 μM) stimulated CCRF-CEM cells
[3] = test system: ATF4 in HCT116 colorectal cancer cells; experiment: HCT116 amino acid starved (-AA) ATF4 assay (Western blot); format: cell-based; conditions: Homo sapiens, HCT-116, 4 h
Outline: (§1)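 HCT116 cells switched to amino-acid-free EBSS (10% dialyzed FBS, 5.5 mM glucose, vitamins) with serial compound dilutions for 4 h at 37° C. Lysates Western blotted for phospho-GCN2 (Thr899), total GCN2, ATF4 and beta-actin; IC50 values derived from quantified bands.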

[4] = test system: phospho-GCN2 (Thr899) in HCT116 colorectal cancer cells; experiment: HCT116 amino acid starved (-AA) phospho-GCN2 assay (Western blot); format: cell-based; conditions: Homo sapiens, HCT-116, 4 h, read-out: HCT116-AA pGCN2 Western Blot
Outline: as §1

CCRF-CEM leukemia cells = experiment: CCRF-CEM ASNase cell proliferation assay, phenotypic assay for cellular inhibition of GCN2; format: cell-based; conditions: Homo sapiens; ASNase treated CCRF-CEM cells, 1 mU/mL ASNase, 72 h
Outline: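 Cells were seeded at ten thousand per well in RPMI-1640 with 10% heat-inactivated FBS and treated in triplicate with serially diluted compound plus 1 mU/mL ASNase for 72 h at 37 °C, 5% CO2. Resazurin was then added for 6 h, with fluorescence read at ex 540/em 600 nm to derive IC50 values.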

Chain of PERK kinase (Q9NZJ5 other isoform, or with tags, fused parts or gaps): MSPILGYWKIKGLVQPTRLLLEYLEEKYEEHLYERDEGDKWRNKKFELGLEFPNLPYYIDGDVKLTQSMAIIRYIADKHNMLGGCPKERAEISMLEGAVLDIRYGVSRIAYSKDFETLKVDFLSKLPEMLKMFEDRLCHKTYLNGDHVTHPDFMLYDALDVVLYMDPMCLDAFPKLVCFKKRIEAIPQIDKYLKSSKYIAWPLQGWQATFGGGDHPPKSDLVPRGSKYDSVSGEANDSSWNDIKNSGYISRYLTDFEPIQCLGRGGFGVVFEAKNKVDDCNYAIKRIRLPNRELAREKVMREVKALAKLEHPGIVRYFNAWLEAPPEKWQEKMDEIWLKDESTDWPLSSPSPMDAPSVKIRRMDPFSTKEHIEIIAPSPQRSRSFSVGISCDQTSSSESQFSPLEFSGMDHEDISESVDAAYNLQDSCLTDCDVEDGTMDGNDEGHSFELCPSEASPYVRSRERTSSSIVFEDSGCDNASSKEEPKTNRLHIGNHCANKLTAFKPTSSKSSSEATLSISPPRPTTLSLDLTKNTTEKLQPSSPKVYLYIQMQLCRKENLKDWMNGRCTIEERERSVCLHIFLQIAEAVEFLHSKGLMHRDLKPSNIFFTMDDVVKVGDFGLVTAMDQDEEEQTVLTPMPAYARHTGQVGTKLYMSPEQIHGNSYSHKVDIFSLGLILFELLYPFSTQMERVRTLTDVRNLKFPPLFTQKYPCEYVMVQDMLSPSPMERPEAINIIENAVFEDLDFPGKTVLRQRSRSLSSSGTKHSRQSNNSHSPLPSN

Compound	IC50 (PERK kinase)	IC50 (GCN2 kinase)	H929 NS ATF4 ELISA (fold stimulation of ATF4 relative to vehicle) [1]	IC50 [2]	IC50 [3]	IC50 [4]	IC50 (CCRF-CEM leukemia cells)
CNc1ncc2cc(-c3cc(NS(=O)(=O)c4cc(Cl)cnc4OC)cc(F)c3F)c(NC)nc2n1 [Example 49]	100 to 500 nM	≤ 100 nM	+ (“+” refers to an ATF4 stim less than or equal to 5-fold)	1000 to 10000 nM	100 to 500 nM	≤ 100 nM	≤ 100 nM
CNc1ncc2cc(-c3cccc(NS(=O)(=O)c4cc(Cl)cnc4OC)c3C(F)(F)F)ccc2n1 [Example 79]	100 to 500 nM	100 to 500 nM	+++ (“+++” refers to an ATF4 stim greater than 10 fold and less than or equal to 20 fold)				
CNc1ncc2cc(-c3cccc(NS(=O)(=O)c4cc(Cl)cc(CO)c4Cl)c3F)c(NC)nc2n1 [Example 175]	≤ 100 nM	≤ 100 nM	+++ (“+++” refers to an ATF4 stim greater than 10 fold and less than or equal to 20 fold)	100 to 500 nM			≤ 100 nM
CNc1nc2nc(N)ncc2cc1-c1cccc(NS(=O)(=O)c2cc(Cl)cnc2OC)c1F [Example 109, N-(3-(2-amino-7-(methylamino)pyrido[2,3-d]pyrimidin-6-yl)-2-fluorophenyl)-5-chloro-2-methoxypyridine-3-sulfonamide]	100 to 500 nM	≤ 100 nM	+++ (“+++” refers to an ATF4 stim greater than 10 fold and less than or equal to 20 fold)	500 to 1000 nM	≤ 100 nM	≤ 100 nM	≤ 100 nM
CNc1ncc2cc(-c3cccc(NS(=O)(=O)c4cccc(CO)c4Cl)c3F)c(NC)nc2n1 [Example 151]	100 to 500 nM	≤ 100 nM	++ (“++” refers to an ATF4 stim greater than 5 fold and less than or equal to 10 fold)	100 to 500 nM	≤ 100 nM	≤ 100 nM	≤ 100 nM
CNc1ncc2cc(-c3cccc(NS(=O)(=O)c4cc(Cl)cc(CO)c4OC)c3F)c(NC)nc2n1 [Example 179]	≤ 100 nM	≤ 100 nM	+++ (“+++” refers to an ATF4 stim greater than 10 fold and less than or equal to 20 fold)	100 to 500 nM			≤ 100 nM
CNc1cc2nc(C)c(-c3cccc(NS(=O)(=O)c4cc(Cl)cnc4OC)c3F)cc2cn1 [Example 31]	≤ 100 nM	≤ 100 nM	++ (“++” refers to an ATF4 stim greater than 5 fold and less than or equal to 10 fold)	1000 to 10000 nM	≤ 100 nM	≤ 100 nM	≤ 100 nM
Cc1nc2cc(N)ncc2cc1-c1cccc(NS(=O)(=O)c2cc(Cl)cc(CO)c2Cl)c1F [Example 174]			+++ (“+++” refers to an ATF4 stim greater than 10 fold and less than or equal to 20 fold)	≤ 100 nM			≤ 100 nM
COc1ncc(Cl)cc1S(=O)(=O)Nc1cc(F)cc(-c2cnc3nc(N)ncc3c2)c1 [Example 86]	1000 to 10000 nM	1000 to 10000 nM	+++ (“+++” refers to an ATF4 stim greater than 10 fold and less than or equal to 20 fold)				
CNc1nc2nc(N)ncc2cc1-c1cc(F)cc(NS(=O)(=O)c2cc(Cl)cnc2OC)c1 [Example 96]	100 to 500 nM	≤ 100 nM		1000 to 10000 nM	100 to 500 nM	≤ 100 nM	100 to 500 nM
CNc1cc2nc(C)c(-c3cc(F)cc(NS(=O)(=O)c4cc(Cl)cnc4OC)c3)cc2cn1 [Example 23]	≤ 100 nM	≤ 100 nM		1000 to 10000 nM	≤ 100 nM	≤ 100 nM	100 to 500 nM
CNc1ncc2cc(-c3cccc(NS(=O)(=O)c4cc(Cl)cnc4NC)c3F)c(C)nc2n1 [Example 90]	≤ 100 nM	≤ 100 nM		1000 to 10000 nM	≤ 100 nM	≤ 100 nM	≤ 100 nM
CNc1cc2nc(C)c(-c3cc(F)cc(NS(=O)(=O)c4cc(Cl)cc(CO)c4Cl)c3)cc2cn1 [Example 25]	≤ 100 nM	≤ 100 nM	++ (“++” refers to an ATF4 stim greater than 5 fold and less than or equal to 10 fold)	1000 to 10000 nM	≤ 100 nM	≤ 100 nM	≤ 100 nM
CNc1ncc2cc(-c3cccc(NS(=O)(=O)c4cc(Cl)ccc4OC)c3F)c(NC)nc2n1 [Example 148]	≤ 100 nM	≤ 100 nM		1000 to 10000 nM	≤ 100 nM	≤ 100 nM	≤ 100 nM
CNc1nc2nc(Nc3cnn(C)c3)ncc2cc1-c1cccc(NS(=O)(=O)c2cc(Cl)cnc2OC)c1F [Example 110]	≤ 100 nM	≤ 100 nM	++ (“++” refers to an ATF4 stim greater than 5 fold and less than or equal to 10 fold)	100 to 500 nM	≤ 100 nM	≤ 100 nM	≤ 100 nM
CNc1ncc2cc(-c3cc(NS(=O)(=O)c4cc(Cl)cnc4OC)ccc3Cl)c(C)nc2n1 [Example 68]	≤ 100 nM	≤ 100 nM		1000 to 10000 nM	≤ 100 nM	≤ 100 nM	≤ 100 nM
CNc1ncc2cc(-c3cccc(NS(=O)(=O)c4cc(Cl)cnc4NC4CC4)c3F)c(NC)nc2n1 [Example 137]	100 to 500 nM	≤ 100 nM		1000 to 10000 nM	≤ 100 nM	≤ 100 nM	≤ 100 nM
CNc1cc2nc(OC)c(-c3cccc(NS(=O)(=O)c4cc(Cl)cnc4OC)c3F)cc2cn1 [Example 129]	≤ 100 nM	≤ 100 nM		1000 to 10000 nM	≤ 100 nM	≤ 100 nM	≤ 100 nM
CNc1cc2nc(C)c(-c3cc(NS(=O)(=O)c4cc(Cl)cc(CO)c4Cl)c(F)cc3F)cc2cn1 [Example 22]	≤ 100 nM	≤ 100 nM		1000 to 10000 nM	≤ 100 nM	≤ 100 nM	≤ 100 nM
CNc1cc2nc(N)c(-c3cccc(NS(=O)(=O)c4cc(Cl)cnc4OC)c3F)cc2cn1 [Example 128]	≤ 100 nM	≤ 100 nM	+++ (“+++” refers to an ATF4 stim greater than 10 fold and less than or equal to 20 fold)	≤ 100 nM	≤ 100 nM	≤ 100 nM	≤ 100 nM
